Data as given in US20070197549A1, “Tetrazole compounds and their use as metabotropic glutamate receptor antagonists” (AstraZeneca AB, priority 2004, published 2007).

Molecular target: T1, human mGluR5d (Homo sapiens, UniProt P41594)
T1 construct: expressed in transfected cells; GHEK cells stably expressing human mGluR5d are named only for the IP3 assay
Assay: FLIPR analysis of [Ca2+]i mobilization in cells expressing human mGluR5d
Format: cell-based
Experimental: For FLIPR analysis, cells expressing human mGluR5das described in WO97/05252 were seeded on collagen coated clear bottom 96-well plates with black sides and analysis of [Ca^2+]i mobilization was done 24 h after seeding.
FLIPR experiments were done using a laser setting of 0.800 W and a 0.4 second CCD camera shutter speed. Each FLIPR experiment was initiated with 160 μl of buffer present in each well of the cell plate. After each addition of the compound, the fluorescence signal was sampled 50 times at 1 second intervals followed by 3 samples at 5 second intervals. Responses were measured as the peak height of the response within the sample period. EC50 and IC50 determinations were made from data obtained from 8-point concentration response curves (CRC) performed in duplicate. Agonist CRC were generated by scaling all responses to the maximal response observed for the plate. […]
FLIPR experiments were done using a laser setting of 0.800 W and a 0.4 second CCD camera shutter speed with excitation and emission wavelengths of 488 nm and 562 nm, respectively. […] After each addition the fluorescence signal was sampled 50 times at 1 second intervals followed by 3 samples at 5 second intervals. Responses were measured as the peak height of the response within the sample period. […]

T1 sequence (P41594 21-942 isoform P41594-3 limits assumed): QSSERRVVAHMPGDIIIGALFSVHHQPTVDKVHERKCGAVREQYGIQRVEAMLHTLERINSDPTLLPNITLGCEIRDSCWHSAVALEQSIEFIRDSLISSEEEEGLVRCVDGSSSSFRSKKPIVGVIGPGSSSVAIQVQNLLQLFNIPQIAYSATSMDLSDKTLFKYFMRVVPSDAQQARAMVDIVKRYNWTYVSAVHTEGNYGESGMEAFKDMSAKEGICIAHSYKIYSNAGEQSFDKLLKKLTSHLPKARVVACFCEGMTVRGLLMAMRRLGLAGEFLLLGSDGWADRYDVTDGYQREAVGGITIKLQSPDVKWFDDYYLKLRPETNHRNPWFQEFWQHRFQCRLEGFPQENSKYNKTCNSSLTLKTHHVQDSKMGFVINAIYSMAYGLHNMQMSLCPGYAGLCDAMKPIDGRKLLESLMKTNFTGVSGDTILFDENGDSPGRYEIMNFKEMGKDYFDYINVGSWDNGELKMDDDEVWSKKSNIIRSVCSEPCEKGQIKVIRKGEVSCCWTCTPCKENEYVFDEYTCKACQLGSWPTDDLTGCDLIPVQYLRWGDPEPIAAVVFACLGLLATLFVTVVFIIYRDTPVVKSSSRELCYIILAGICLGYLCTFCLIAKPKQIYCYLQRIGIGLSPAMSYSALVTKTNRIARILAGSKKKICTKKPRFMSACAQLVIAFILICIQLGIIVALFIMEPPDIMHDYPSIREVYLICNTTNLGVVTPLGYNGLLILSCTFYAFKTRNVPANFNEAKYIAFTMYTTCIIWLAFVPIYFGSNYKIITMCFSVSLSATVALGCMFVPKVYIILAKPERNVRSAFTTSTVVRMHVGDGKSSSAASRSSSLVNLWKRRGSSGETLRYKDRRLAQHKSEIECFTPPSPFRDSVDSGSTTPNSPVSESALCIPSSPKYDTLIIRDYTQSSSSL

Row | SMILES | IC50 [nM]
1 | CC(Sc1nnc(-c2ccncc2)n1C)c1nnn(-c2cc(Cl)ccc2F)n1 (centres unmarked) [4-(5-{1-[2-(5-Chloro-2-fluoro-phenyl)-2H-tetrazol-5-yl]-ethylsulfanyl}-4-methyl-4H-[1,2,4]triazol-3-yl)-pyridine] | 55
2 | CCOC(=O)N1CCN(C(C)c2nnn(-c3cccc(Cl)c3)n2)CC1 (centres unmarked) [Ethyl 4-{1-[2-(3-chlorophenyl)-2H-tetrazol-5-yl]ethyl}piperazine-1-carboxylate] | 132
